Here are results for four compounds from patent US20120329761A1, “USE OF TIGECYCLINE FOR TREATMENT OF CANCER” (UNIVERSITY HEALTH NETWORK, priority 2010, published 2012).

Test [1] deals with acute myeloid leukemia (AML). Particulars: 13 patients treated; cited from earlier work.
The subject of another test is TEX cells. Kind of test: ROS generation, DCF-DA and DHE staining. The format is cell-based, human. Particulars: time-points up to 24 hours. As to the method:
FIG. 4. […] (A) Cells from TEX, OCI-AML2 and two primary AML patients were treated with increasing concentrations (2.5 μM and 5 μM) of tigecycline for 36 and 48 hours of tigecycline. Total proteins were extracted and analyzed by western blotting for Cox-1, Cox-2, Cox-4, grp78, XIAP, actin and tubulin. (B) TEX and AML patient cells were treated with increasing concentrations (2.5 μM and 5 μM) of tigecycline. Cox-1, Cox-2, and Cox-4 mRNA expression relative 18S was determined by quantitative RT-PCR. Data is shown as mean±SD. (C) TEX cells were treated with increasing concentrations of tigecycline and chloramphenicol (CAP) for 72 hours. Complex I, II and IV enzyme activity relative to citrate synthase activity was determined as described in materials and methods. (D) Cells from TEX, primary AML patients, and normal donors were treated with increasing concentrations of tigecycline. Mitochondrial membrane potential (Δψ) was determined by staining cells with JC-1 dye, and flow cytometry analysis (Red/Green ratio). Reactive oxygen species generation (ROS) was determined by staining with h2-DCFDA and Dihydroethidium (DHE).
A byproduct of the mitochondrial enzyme activities of the electron transport chain is the generation of reactive oxygen species (ROS). […] Therefore, the role of tigecycline on ROS generation in leukemia cells by analyzing hydrogen peroxide ions (H2O2) using a dichlorofluorescein dye (DCF-DA), and superoxide anions using dihydroethidium (DHE) was examined.

`NC(=O)c1ncn([C@@H]2O[C@H](CO)[C@@H](O)[C@H]2O)n1` [ribavirin]: in test [1], the “complete remission (number of patients)” value is listed as 1 and the “partial remissions (number of patients)” value is given as 2. On to `CC[C@H]1/C=C/C=C/C[C@@H](C)[C@H](O)[C@@](C)(O)C(=O)[C@@H](C)[C@H](O)[C@@H](C)C(=O)[C@@H](C)[C@H](O)[C@@H](C)/C=C/C(=O)O[C@@H]2[C@H](C)[C@H](CC1)O[C@]1(CC[C@H](C)[C@H](C[C@@H](C)O)O1)[C@H]2C` [oligomycin], for which, in the test on TEX cells, the ROS generation entry is listed as “rapid increases in ROS levels”. As for `C=C(C)[C@H]1Cc2c(ccc3c2O[C@@H]2COc4cc(OC)c(OC)cc4[C@@H]2C3=O)O1` [rotenone], the ROS generation entry with TEX cells is recorded as “rapid increases in ROS levels”.

On to antimycin, for which, in the test on TEX cells, the ROS generation result is given as “rapid increases in ROS levels”.
